Test results: patent US20210177868A1, “NOVEL USE OF PHYTOSTENONE” (Daisankasei Co., Ltd., priority 2018, published 2021)

Legend:
[1] = orally administered, approximately 120 mg/day over 8 weeks; cited from earlier work
SD rats = experiment: application of test substance onto dehaired abdominal skin of fattened SD rats for 2 weeks; weight of each fat measured; assay type: in vivo, rat; conditions: applied onto abdominal skin, 2 ml of 5 mg/ml ethanol solution daily for 2 weeks, n=3, p<0.05
Protocol: The abdomen of each fat rat was dehaired (20 mm square). Thereafter, 2 ml of a phytostenone-containing composition (30 mg/ml ethanol solution) used as a test substance, 2 ml of campest-5-en-3-one (5 mg/ml ethanol solution) used as a test substance, or 2 ml of an ethanol solution used as a control was applied gently with a cotton to individual rats divided into the groups (n=3 in each group). This operation was carried out continuously for 2 weeks. After termination of the application test, the rats were dissected, and liver fat, epididymal fat, perirenal fat, mesenteric fat, and subcutaneous fat were carefully recovered. Thereafter, the weight of each fat was measured.
Herein, in the present example, the significance test was carried out as follows. First, the mean value±standard error in each group was calculated, and a variance test was then carried out. In the case of equal variance, the significance test was carried out according to the t-test, and in the case of unequal variance, the significance test was carried out according to the Welch method.

SMILES: CC(C)[C@H](C)CC[C@@H](C)[C@H]1CC[C@H]2[C@@H]3CC=C4CC(=O)CC[C@]4(C)[C@H]3CC[C@]12C [campest-5-en-3-one]
- subcutaneous fat reduction percentage [1]: 26%
- reduction of the amount of subcutaneous fat compared with the control (ethanol solution) (SD rats): approximately 16%
